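Test compounds were applied to cells in 96-well plates for 48 hours at 5 doses. The concentration for full growth arrest is given as TGI.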

The text below walks through data of PubChem BioAssay (NCI).

For one assay, the system named is BT-549 breast. Briefly: DTP human tumour cell line panel, 48 h.
`CCOC(=O)NC(Nc1c(F)c(F)c(F)c(F)c1F)(C(F)(F)F)C(F)(F)F` gave a TGI of over 100 µM.
Still for that read-out and setting: as for `COC(=O)N1N=C(c2ccccc2)C1c1ccccc1` (stereo unspecified), the figure is over 100 µM; as for `O=C1c2cccc(O)c2C(=O)c2c(OC3OC(CO)C(O)C(O)C3O)cccc21` (stereo unspecified), 93.3 µM.

Another assay has as its system RXF 393 renal. Briefly: DTP human tumour cell line panel, 48 h.
In turn, `Clc1ccc(/C(=C\c2ccccc2)Cn2ccnc2)cc1` returned a TGI of 42.2 µM.
The same measure, in the same setting: in the case of `CCOC(=O)NC(Nc1c(F)c(F)c(F)c(F)c1F)(C(F)(F)F)C(F)(F)F` it was over 100 µM; in that of `COC(=O)N1N=C(c2ccccc2)C1c1ccccc1` (stereo unspecified), over 100 µM; in that of `O=C1c2cccc(O)c2C(=O)c2c(OC3OC(CO)C(O)C(O)C3O)cccc21` (stereo unspecified), 97.3 µM.

For the next assay, the system named is UACC-62 melanoma. Briefly: DTP human tumour cell line panel, 48 h.
In turn, `Clc1ccc(/C(=C\c2ccccc2)Cn2ccnc2)cc1` displayed a TGI of 35.8 µM.
Still for that read-out and setting: as for `CCOC(=O)NC(Nc1c(F)c(F)c(F)c(F)c1F)(C(F)(F)F)C(F)(F)F`, the figure is over 100 µM.
Same read-out and setting: in the case of `COC(=O)N1N=C(c2ccccc2)C1c1ccccc1` (stereo unspecified) it was 63.3 µM.
On the same count and under the same terms, in the case of `O=C1c2cccc(O)c2C(=O)c2c(OC3OC(CO)C(O)C(O)C3O)cccc21` (stereo unspecified) it was over 100 µM.

The subject of the next assay is MDA-MB-435. Briefly: DTP human tumour cell line panel, 48 h.
For the molecule `Clc1ccc(/C(=C\c2ccccc2)Cn2ccnc2)cc1`, the TGI came out at 34.6 µM.
On to `CCOC(=O)NC(Nc1c(F)c(F)c(F)c(F)c1F)(C(F)(F)F)C(F)(F)F`, for which the TGI is over 100 µM.
Molecule `COC(=O)N1N=C(c2ccccc2)C1c1ccccc1` (stereo unspecified) gave a TGI of over 100 µM.
For the molecule `O=C1c2cccc(O)c2C(=O)c2c(OC3OC(CO)C(O)C(O)C3O)cccc21` (stereo unspecified), the TGI was 39.7 µM. That is a double-digit micromolar value.

In a further assay the test system is HOP-62 NSCLC. Briefly: DTP human tumour cell line panel, 48 h.
The molecule `Clc1ccc(/C(=C\c2ccccc2)Cn2ccnc2)cc1` showed a total growth inhibition concentration (TGI) of 38.3 µM.
On to `CCOC(=O)NC(Nc1c(F)c(F)c(F)c(F)c1F)(C(F)(F)F)C(F)(F)F`, for which the TGI is over 100 µM.
The same measure, in the same setting: in the case of `O=C1c2cccc(O)c2C(=O)c2c(OC3OC(CO)C(O)C(O)C3O)cccc21` (stereo unspecified) it was over 100 µM.

The next assay concerns SK-MEL-2 melanoma. Kind of assay: DTP human tumour cell line panel, 48 h.
`Clc1ccc(/C(=C\c2ccccc2)Cn2ccnc2)cc1`: the concentration for total growth inhibition (TGI) amounted to 30.3 µM.
On the same count and under the same terms, as for `CCOC(=O)NC(Nc1c(F)c(F)c(F)c(F)c1F)(C(F)(F)F)C(F)(F)F`, the figure is over 100 µM; as for `COC(=O)N1N=C(c2ccccc2)C1c1ccccc1` (stereo unspecified), over 100 µM; as for `O=C1c2cccc(O)c2C(=O)c2c(OC3OC(CO)C(O)C(O)C3O)cccc21` (stereo unspecified), over 100 µM.

Another assay concerns PC-3 prostate. Kind of assay: DTP human tumour cell line panel, 48 h.
In the case of `Clc1ccc(/C(=C\c2ccccc2)Cn2ccnc2)cc1`, the concentration for total growth inhibition (TGI) turned out to be 31.9 µM.
Still for that read-out and setting: in the case of `CCOC(=O)NC(Nc1c(F)c(F)c(F)c(F)c1F)(C(F)(F)F)C(F)(F)F` it was over 100 µM.
Same read-out and setting: in the case of `COC(=O)N1N=C(c2ccccc2)C1c1ccccc1` (stereo unspecified) it was over 100 µM.
On the same count and under the same terms, as for `O=C1c2cccc(O)c2C(=O)c2c(OC3OC(CO)C(O)C(O)C3O)cccc21` (stereo unspecified), the figure is 82 µM.

The test system of the next assay is MDA-N. Kind of assay: DTP human tumour cell line panel, 48 h.
As to `Clc1ccc(/C(=C\c2ccccc2)Cn2ccnc2)cc1`, the TGI worked out at 39 µM.
The same measure, in the same setting: as for `CCOC(=O)NC(Nc1c(F)c(F)c(F)c(F)c1F)(C(F)(F)F)C(F)(F)F`, the figure is over 100 µM; as for `COC(=O)N1N=C(c2ccccc2)C1c1ccccc1` (stereo unspecified), over 100 µM; as for `O=C1c2cccc(O)c2C(=O)c2c(OC3OC(CO)C(O)C(O)C3O)cccc21` (stereo unspecified), over 100 µM.

A further assay concerns SK-MEL-28 melanoma. Briefly: DTP human tumour cell line panel, 48 h.
`Clc1ccc(/C(=C\c2ccccc2)Cn2ccnc2)cc1` yielded a TGI of 38.1 µM.
The same measure, in the same setting: in the case of `CCOC(=O)NC(Nc1c(F)c(F)c(F)c(F)c1F)(C(F)(F)F)C(F)(F)F` it was over 100 µM; in that of `COC(=O)N1N=C(c2ccccc2)C1c1ccccc1` (stereo unspecified), over 100 µM; in that of `O=C1c2cccc(O)c2C(=O)c2c(OC3OC(CO)C(O)C(O)C3O)cccc21` (stereo unspecified), over 100 µM.

The test system of another assay is SW-620 colon. Kind of assay: DTP human tumour cell line panel, 48 h.
`Clc1ccc(/C(=C\c2ccccc2)Cn2ccnc2)cc1`: the TGI is over 100 µM.
With `CCOC(=O)NC(Nc1c(F)c(F)c(F)c(F)c1F)(C(F)(F)F)C(F)(F)F`, the TGI is over 100 µM.
The same measure, in the same setting: in the case of `COC(=O)N1N=C(c2ccccc2)C1c1ccccc1` (stereo unspecified) it was over 100 µM.
In turn, `O=C1c2cccc(O)c2C(=O)c2c(OC3OC(CO)C(O)C(O)C3O)cccc21` (stereo unspecified) yielded a TGI of over 100 µM.

Another assay concerns IGROV1 ovarian. Briefly: DTP human tumour cell line panel, 48 h.
In turn, `Clc1ccc(/C(=C\c2ccccc2)Cn2ccnc2)cc1` returned a TGI of over 100 µM.
The same measure, in the same setting: as for `CCOC(=O)NC(Nc1c(F)c(F)c(F)c(F)c1F)(C(F)(F)F)C(F)(F)F`, the figure is over 100 µM; as for `O=C1c2cccc(O)c2C(=O)c2c(OC3OC(CO)C(O)C(O)C3O)cccc21` (stereo unspecified), over 100 µM.

Another assay relates to MALME-3M melanoma. Briefly: DTP human tumour cell line panel, 48 h.
`Clc1ccc(/C(=C\c2ccccc2)Cn2ccnc2)cc1` returned a TGI of 27 µM.
For the molecule `CCOC(=O)NC(Nc1c(F)c(F)c(F)c(F)c1F)(C(F)(F)F)C(F)(F)F`, the TGI is over 100 µM.
Still for that read-out and setting: in the case of `COC(=O)N1N=C(c2ccccc2)C1c1ccccc1` (stereo unspecified) it was over 100 µM.
Still for that read-out and setting: as for `O=C1c2cccc(O)c2C(=O)c2c(OC3OC(CO)C(O)C(O)C3O)cccc21` (stereo unspecified), the figure is 20.9 µM.

A further assay concerns SF-295 CNS. Kind of assay: DTP human tumour cell line panel, 48 h.
Molecule `Clc1ccc(/C(=C\c2ccccc2)Cn2ccnc2)cc1` showed a TGI of 49.4 µM.
Same read-out and setting: as for `CCOC(=O)NC(Nc1c(F)c(F)c(F)c(F)c1F)(C(F)(F)F)C(F)(F)F`, the figure is over 100 µM.
The same measure, in the same setting: as for `O=C1c2cccc(O)c2C(=O)c2c(OC3OC(CO)C(O)C(O)C3O)cccc21` (stereo unspecified), the figure is over 100 µM.

The next assay concerns UACC-257 melanoma. Briefly: DTP human tumour cell line panel, 48 h.
`Clc1ccc(/C(=C\c2ccccc2)Cn2ccnc2)cc1` showed a TGI of 47.8 µM.
On the same count and under the same terms, as for `CCOC(=O)NC(Nc1c(F)c(F)c(F)c(F)c1F)(C(F)(F)F)C(F)(F)F`, the figure is over 100 µM.
The same measure, in the same setting: in the case of `COC(=O)N1N=C(c2ccccc2)C1c1ccccc1` (stereo unspecified) it was 77.4 µM; in that of `O=C1c2cccc(O)c2C(=O)c2c(OC3OC(CO)C(O)C(O)C3O)cccc21` (stereo unspecified), 39.9 µM.

Another assay relates to HCC-2998 colon. Briefly: DTP human tumour cell line panel, 48 h.
Molecule `Clc1ccc(/C(=C\c2ccccc2)Cn2ccnc2)cc1` returned a TGI of 48.8 µM.
Same read-out and setting: in the case of `CCOC(=O)NC(Nc1c(F)c(F)c(F)c(F)c1F)(C(F)(F)F)C(F)(F)F` it was over 100 µM; in that of `COC(=O)N1N=C(c2ccccc2)C1c1ccccc1` (stereo unspecified), over 100 µM.
Still for that read-out and setting: as for `O=C1c2cccc(O)c2C(=O)c2c(OC3OC(CO)C(O)C(O)C3O)cccc21` (stereo unspecified), the figure is 59.6 µM.

As usually defined, the TGI is the concentration giving total growth inhibition. A low value points to greater sensitivity of the cells.
